Data taken from ChEMBL document CHEMBL1926664, “Synthesis and antiproliferative evaluation of 6-aryl-11-iminoindeno[1,2-c]quinoline derivatives” (2011).
The source made the active and inactive calls. No cut-off for these calls is given here.

Columns and labels:
[1] = Cell cycle arrest in human Hep3B cells assessed as accumulation at S phase at 5 uM after 12 hrs using propidium iodide staining by flow cytometry (reference value: 12.2%); type: functional, cell-based; conditions: Hep 3B2
[2] = Cell cycle arrest in human Hep3B cells assessed as accumulation at S phase at 10 uM after 12 hrs using propidium iodide staining by flow cytometry (reference value: 12.2%); type: functional, cell-based; conditions: Hep 3B2
[3] = Cell cycle arrest in human Hep3B cells assessed as accumulation at G2/M phase at 1 uM after 12 hrs using propidium iodide staining by flow cytometry (reference value: 16.2 %); type: functional, cell-based; conditions: Hep 3B2
[4] = Cell cycle arrest in human Hep3B cells assessed as accumulation at G2/M phase at 5 uM after 12 hrs using propidium iodide staining by flow cytometry (reference value: 16.2 %); type: functional, cell-based; conditions: Hep 3B2
[5] = Cell cycle arrest in human Hep3B cells assessed as accumulation at G2/M phase at 10 uM after 12 hrs using propidium iodide staining by flow cytometry (reference value: 16.2 %); type: functional, cell-based; conditions: Hep 3B2
HepG2 [6] = assay: Induction of apoptosis in human HepG2 cells assessed as cell shrinking at 5 uM after 12 hrs by light microscopic method; type: functional, cell-based
Hep 3B2 [7] = assay: Induction of apoptosis in human Hep3B cells assessed as cell shrinking at 5 uM after 12 hrs by light microscopic method; type: functional, cell-based
HepG2 [8] = assay: Induction of apoptosis in human HepG2 cells assessed as increased expression of Bax protein at 1 to 10 uM after 12 hrs by immunoblot; type: functional, cell-based
HepG2 [9] = assay: Induction of apoptosis in human HepG2 cells assessed as Bcl-2 level at 1 to 10 uM after 12 hrs by chemiluminescence blotting method; type: functional, cell-based
HepG2 [10] = assay: Induction of apoptosis in human HepG2 cells assessed as increase in caspase-8 level at 1 to 10 uM after 12 hrs by chemiluminescence blotting method; type: functional, cell-based
HepG2 [11] = assay: Induction of apoptosis in human HepG2 cells assessed as increase in expression of p53 protein at 1 to 10 uM after 12 hrs by chemiluminescence blotting method; type: functional, cell-based
Hep 3B2 [12] = assay: Growth inhibition of human Hep3B cells assessed as assessed as suppression of cell viability at 5 uM after 12 hrs by XTT assay; type: functional, cell-based
Hep 3B2 [13] = assay: Growth inhibition of human Hep3B cells at 0.1 to 5 uM by XTT assay; type: functional, cell-based; conditions: TDE = time-dependent effect
HepG2 [14] = assay: Growth inhibition of human HepG2 cells assessed as suppression of cell viability at 5 uM after 12 hrs by XTT assay; type: functional, cell-based
HepG2 [15] = assay: Growth inhibition of human HepG2 cells at 0.1 to 5 uM by XTT assay; type: functional, cell-based; conditions: TDE = time-dependent effect
HepG2 [16] = assay: Growth inhibition of human HepG2 cells after 12 to 72 hrs by XTT assay; type: functional, cell-based
Hep 3B2 [17] = assay: Growth inhibition of human Hep3B cells after 12 to 72 hrs by XTT assay; type: functional, cell-based
MCF7 = assay: Growth inhibition of human MCF7 cells after 72 hrs by XTT assay; type: functional; conditions: MCF7, 72 h
MDA-MB-231 = assay: Growth inhibition of human MDA-MB-231 cells after 72 hrs by XTT assay; type: functional; conditions: MDA-MB-231, 72 h
A549 = assay: Growth inhibition of human A549 cells after 72 hrs by XTT assay; type: functional; conditions: A549, 72 h
[18] = Growth inhibition of human H1299 cells after 72 hrs by XTT assay; type: functional; conditions: NCI-H1299, 72 h
HepG2 [19] = assay: Growth inhibition of human HepG2 cells after 72 hrs by XTT assay; type: functional; conditions: HepG2, 72 h
[20] = Growth inhibition of human Hep3B cells after 72 hrs by XTT assay; type: functional, Hep 3B2
HepG2 [21] = assay: Cell cycle arrest in human HepG2 cells assessed as accumulation at sub-G1 phase at 1 uM after 12 hrs using propidium iodide staining by flow cytometry (reference value: 3.6%); type: functional
HepG2 [22] = assay: Cell cycle arrest in human HepG2 cells assessed as accumulation at sub-G1 phase at 5 uM after 12 hrs using propidium iodide staining by flow cytometry (reference value: 3.6%); type: functional
HepG2 [23] = assay: Cell cycle arrest in human HepG2 cells assessed as accumulation at sub-G1 phase at 10 uM after 12 hrs using propidium iodide staining by flow cytometry (reference value: 3.6%); type: functional
HepG2 [24] = assay: Cell cycle arrest in human HepG2 cells assessed as accumulation at G1 phase at 1 uM after 12 hrs using propidium iodide staining by flow cytometry (reference value: 67.5%); type: functional
HepG2 [25] = assay: Cell cycle arrest in human HepG2 cells assessed as accumulation at G1 phase at 5 uM after 12 hrs using propidium iodide staining by flow cytometry (reference value: 67.5%); type: functional
HepG2 [26] = assay: Cell cycle arrest in human HepG2 cells assessed as accumulation at G1 phase at 10 uM after 12 hrs using propidium iodide staining by flow cytometry (reference value: 67.5%); type: functional
HepG2 [27] = assay: Cell cycle arrest in human HepG2 cells assessed as accumulation at S phase at 1 uM after 12 hrs using propidium iodide staining by flow cytometry (reference value: 13.8%); type: functional
HepG2 [28] = assay: Cell cycle arrest in human HepG2 cells assessed as accumulation at S phase at 5 uM after 12 hrs using propidium iodide staining by flow cytometry (reference value: 13.8%); type: functional
HepG2 [29] = assay: Cell cycle arrest in human HepG2 cells assessed as accumulation at S phase at 10 uM after 12 hrs using propidium iodide staining by flow cytometry (reference value: 13.8%); type: functional
HepG2 [30] = assay: Cell cycle arrest in human HepG2 cells assessed as accumulation at G2/M phase at 1 uM after 12 hrs using propidium iodide staining by flow cytometry (reference value: 18.7 %); type: functional
HepG2 [31] = assay: Cell cycle arrest in human HepG2 cells assessed as accumulation at G2/M phase at 5 uM after 12 hrs using propidium iodide staining by flow cytometry (reference value: 18.7 %); type: functional
HepG2 [32] = assay: Cell cycle arrest in human HepG2 cells assessed as accumulation at G2/M phase at 10 uM after 12 hrs using propidium iodide staining by flow cytometry (reference value: 18.7 %); type: functional
[33] = Cell cycle arrest in human Hep3B cells assessed as accumulation at sub-G1 phase at 1 uM after 12 hrs using propidium iodide staining by flow cytometry (reference value: 2.1%); type: functional, cell-based; conditions: Hep 3B2
[34] = Cell cycle arrest in human Hep3B cells assessed as accumulation at sub-G1 phase at 5 uM after 12 hrs using propidium iodide staining by flow cytometry (reference value: 2.1%); type: functional, cell-based; conditions: Hep 3B2
[35] = Cell cycle arrest in human Hep3B cells assessed as accumulation at sub-G1 phase at 10 uM after 12 hrs using propidium iodide staining by flow cytometry (reference value: 2.1%); type: functional, cell-based; conditions: Hep 3B2
[36] = Cell cycle arrest in human Hep3B cells assessed as accumulation at G1 phase at 1 uM after 12 hrs using propidium iodide staining by flow cytometry (reference value: 71.6%); type: functional, cell-based; conditions: Hep 3B2
[37] = Cell cycle arrest in human Hep3B cells assessed as accumulation at G1 phase at 5 uM after 12 hrs using propidium iodide staining by flow cytometry (reference value: 71.6%); type: functional, cell-based; conditions: Hep 3B2
[38] = Cell cycle arrest in human Hep3B cells assessed as accumulation at G1 phase at 10 uM after 12 hrs using propidium iodide staining by flow cytometry (reference value: 71.6%); type: functional, cell-based; conditions: Hep 3B2
[39] = Cell cycle arrest in human Hep3B cells assessed as accumulation at S phase at 1 uM after 12 hrs using propidium iodide staining by flow cytometry (reference value: 12.2%); type: functional, cell-based; conditions: Hep 3B2

CN(C)CCCO/N=C1\c2cc(O)ccc2-c2c(-c3ccc(OCCCN(C)C)cc3)nc3ccc(F)cc3c21
Activity [1]: 17.4%
Activity [2]: 15.2%
Activity [3]: 30.7%
Activity [4]: 18.1%
Activity [5]: 14.1%
Activity (HepG2 [6]): Active
Activity (Hep 3B2 [7]): Active
Activity (HepG2 [8]): Active
Activity (HepG2 [9]): Active
Activity (HepG2 [10]): Active
Activity (HepG2 [11]): Active
growth inhibition (GI) (Hep 3B2 [12]): Active
growth inhibition (GI) (Hep 3B2 [13]): tde
growth inhibition (GI) (HepG2 [14]): Active
growth inhibition (GI) (HepG2 [15]): tde
growth inhibition (GI) (HepG2 [16]): Dose-dependent effect
growth inhibition (GI) (Hep 3B2 [17]): Dose-dependent effect
GI50 (MCF7): 6460 nM
GI50 (MDA-MB-231): 650 nM
GI50 (A549): 550 nM
GI50 [18]: 670 nM
GI50 (HepG2 [19]): 640 nM
GI50 [20]: 390 nM
Activity (HepG2 [21]): 4.9%
Activity (HepG2 [22]): 19.8%
Activity (HepG2 [23]): 29.1%
Activity (HepG2 [24]): 56.5%
Activity (HepG2 [25]): 38.1%
Activity (HepG2 [26]): 31.3%
Activity (HepG2 [27]): 12.4%
Activity (HepG2 [28]): 18.5%
Activity (HepG2 [29]): 21.7%
Activity (HepG2 [30]): 31.1%
Activity (HepG2 [31]): 23.6%
Activity (HepG2 [32]): 17.9%
Activity [33]: 5.3%
Activity [34]: 21.8%
Activity [35]: 33.5%
Activity [36]: 58.9%
Activity [37]: 42.7%
Activity [38]: 37.2%
Activity [39]: 10.4%
